Laboratory results published in patent publication US5703130A, “Chalcone retinoids and methods of use of same” (priority 1996, dated 1997).

Legend:
[1] = system: Human promyelocytic leukemia HL-60 cells; experiment: Cell differentiation of HL-60 cells by nitroblue tetrazolium (NBT) reduction; type: cell-based; conditions: 50% differentiation or effective concentration, read-out: NBT ED50
Description: Human promyelocytic leukemia HL-60 cells were cultured in RPMI-1640 medium supplemented by 10% heat-inactivated calf serum and 100 U/ml of penicillin plus 100 μg/ml of streptomycin. The flasks containing cells and medium were incubated in an incubator with 5% CO2 at 37° C. Log phase cells were seeded into the medium at a concentration of 1.2×10^5to 1.4×10^5 cells per ml and cultured in flasks containing 5 ml of medium. Each group consisted of three flasks. Different concentrations of chalcone-retinoids were added. At intervals following the addition of chalcone-retinoids to the cultures, a small portion of cells was removed and live cells were counted under a light microscope using a dye-exclusionmethod with trypan blue. Cell differentiation was judged in terms of morphology and nitroblue tetrazolium (NBT) reduction.
For a determination of NBT reducing activity, a portion of the chalcone-retinoid-treated cells was removed at intervals following treatment and centrifuged. After centrifugation, 0.5 ml of 0.1% NBT (containing 100 ng TPA) was added to each tube. The contents of the test tubes were then incubated for 1 hour at 37° C. Cell smears were prepared from the cell sediment and stained using the Wright-Giemsa technique. For each smear prepared, 200 cells were isolated for examination under a light microscope with an oil immersion lens. Cells stained with blue-black granules were considered NBT-positive cells. The 50% differentiation or effective concentration (ED50 or EC50) is shown in terms of molar (M) concentration of the […] tested.

cancer cells = experiment: MTT assay for inhibitory effect on cancer cells (monolayer culture); type: cell-based; conditions: 120 h, 5 day culture, 1200 tumor cells per well, cell line not named, read-out: MTT ED50
Description: For a monolayer culture to test for the inhibitory effect of chalcone retinoids on cancer cells, 0.5 ml of trypsin solution (0.3 gm/ml) was added to the flasks for digestion. Microtiter plates (96 well) were used for the cell culture and 200 μl of cell suspension (1200 tumor cells) were placed in each well and incubated at 37° C. for 24 hours. Following the addition of the test compound, the control and treated flasks were placed in a CO2 incubator for 5 day culture. For the MTT assay, 200 μl of MTT solution (5 mg in 10 ml of phosphate buffer) plus the medium were added and incubated for another 4 hours. Following incubation, the supernatant was discarded and 200 μl of DMSO was added to each well. With a mild agitation the OD values were determined by the MR 700 Elisa at 570 nm (reference wavelength was 450 nm). The ED50 of the compound and tumor cell survival rate [formula] as percent inhibition were calculated.

[2] = system: human acute myeloid leukemia (AML), neuroblastoma, teratocarcinoma, melanoma, and rat rhabdomyosarcoma cells; conditions: Smith et al., J. Clin. Oncol. 10 (5):839-864 (1992); cited from earlier work
[3] = Preuss-Ueberschar et al., Drug Res. 34:1305-1313 (1984); cited from earlier work
melanoma cell = conditions: Jing et al. (1992); cited from earlier work

SMILES | EC50 [1] [µM] | IC50 (cancer cells) [µM] | also measured
CC(=O)Nc1ccc(OC(=O)c2ccc(NC(=O)c3cc(C(C)(C)C)c(O)c(C(C)(C)C)c3)cc2)cc1 [I-B, N-4-[4-(acetaminophenoxycarbonyl)phenyl]-3,5-di-t-butyl-4-hydroxybenzamide] | > 10 | 11 | –
COc1c(C(C)(C)C)cc(C(=O)C=Cc2ccc(C(=O)Oc3ccc(NC(C)=O)cc3)cc2)cc1C(C)(C)C [I-N, 1-(3,5-di-t-butyl-4-methoxyphenyl)-3-[4-(4-acetaminophenoxycarbonyl)-phenyl]-2-propen-1-one] | > 1 | 2 | –
CCOC(=O)c1ccc(NC(=O)c2ccc(OC(=O)c3cc(C(C)(C)C)c(O)c(C(C)(C)C)c3)cc2)cc1 [I-R, 4-(4-ethoxycarbonyl-phenylaminocarbonyl)phenyl 3,5-di-t-butyl-4-hydroxybenzoate] | > 10 | > 10 | –
CC(C)(C)c1cc(C(=O)Oc2ccc(C(=O)Nc3ccc(C(=O)O)cc3)cc2)cc(C(C)(C)C)c1O [I-S, 4-(4-carboxy-phenylaminocarbonyl)phenyl 3,5-di-t-butyl-4-hydroxybenzoate] | > 10 | 1.6 | –
CC1=C(/C=C/C(C)=C/C=C/C(C)=C/C(=O)O)C(C)(C)CCC1 [all-trans-retinoic acid (RA), all-trans-retinoic acid] | – | – | induces cell differentiation [2]: induces cell differentiation
O=c1ccc2ccccc2o1 [coumarin] | – | – | teratogenicity [3]: not teratogenic
O=c1c(-c2ccc(O)cc2)coc2cc(O)ccc12 [diadzein] | – | – | inhibition of melanoma cell growth (melanoma cell): inhibits melanoma cell growth

Further lines, with some results ahead:

EC50 [1] [µM] | IC50 (cancer cells) [µM] | SMILES | also measured
> 1 | 4 | CC(C)(C)c1cc(C(=O)Nc2ccc(C(=O)Nc3ccc(O)cc3)cc2)cc(C(C)(C)C)c1O [I-A, N-4-[4-(hydroxyphenylaminocarbonyl)phenyl]-3,5-di-t-butyl-4-hydroxybenzamide] | –
1.2 | 0.92 | COc1c(C(C)(C)C)cc(C(=O)Nc2ccc(C(=O)Oc3ccc(NC(C)=O)cc3)cc2)cc1C(C)(C)C [I-J, N-4-[4-(acetaminophenoxycarbonyl)phenyl]-3,5-di-t-butyl-4-methoxybenzamide] | –
8 | 6 | CC(=O)Nc1ccc(OC(=O)c2ccc(OC(=O)c3cc(C(C)(C)C)c(O)c(C(C)(C)C)c3)cc2)cc1 [I-Q, 4'-[(4-acetamino)phenoxycarbonylphenyl] 4-hydroxy-3,5-di-t-butyl-benzoate] | –
